Assay results as given in US11291712B2, “Bacterial protein compositions and uses thereof” (The United States Government as Represented by the …, priority 2017, dated 2022).
“Also recorded” adds a separate entry of the source.

What was measured:
[1] = tested on: A. baumannii strain AB5075 VIR-O and AV-T variants; test: Antimicrobial killing assays (time-kill); type: cell-based, Acinetobacter baumannii; settings: equal mixture of VIR-O and AV-T, 1 hour, CRAMP 10 μg/mL, lysozyme 10 mg/mL, LL-37 15 μg/mL, H2O2 0.01%
Experimental: An equal mixture of VIR-O and AV-T variants were grown to early-log phase in 2 mL LB broth, or LB with tetracycline 6 μg/mL for strains with plasmids. A 5 μL aliquot of each culture was mixed together in 250 μL of 0.1× tryptone/yeast extract (1 g tryptone, 0.5 g yeast extract/liter). Cells were mixed by vortexing and serial dilutions were plated on 0.5×LB agar plates to assess the initial CFU's for both VIR-O and AV-T variants. Various antimicrobials were then added at the following final concentrations: CRAMP (10 μg/mL), lysozyme (10 mg/mL), LL-37 (15 μg/mL) and H2O2. (0.01%). Cells were treated for 1 hour and dilutions were plated on 0.5×LB agar plates to enumerate the surviving VIR-O and AV-T variants.

[2] = tested on: A. baumannii strain AB5075 VIR-O and AV-T cells; test: Sensitivity to disinfectants; type: cell-based, Acinetobacter baumannii; settings: BZT 0.01%, BAK 0.004%, CHG 0.008%; 30 min at room temperature
Experimental: Overnight standing bacterial cultures at room temperature were sub-cultured in LB broth and grown at 37° C. with shaking to an OD600˜0.15. Nine hundred ninety microliters of culture were then added to tubes containing 10 μL of the appropriated disinfectants, BZT (Sigma-Aldrich), BAK (Sigma-Aldrich) and CHG (Sigma-Aldrich), respectively. Tubes were incubated at room temperature for 30 min. Cultures were then serially diluted and plated for CFU enumerations.

Compound | survival of VIR-O (O) cells compared to AV-T (T) cells after treatment with the antimicrobial [1] | survival of VIR-O (O) cells compared to AV-T (T) cells after treatment with the antimicrobial ([1]; listed as hydrogen peroxide) | resistance of VIR-O (O) cells to the disinfectant compared to AV-T (T) cells [2]
OO [H2O2, hydrogen peroxide] | resistant | VIR-O cells vastly outnumbered AV-T cells | 
CC(C)(C)CC(C)(C)c1ccc(OCCOCC[N+](C)(C)Cc2ccccc2)cc1 [benzethonium chloride] |  |  | more resistant; also recorded: increased resistance
N=C(NCCCCCCNC(=N)NC(=N)Nc1ccc(Cl)cc1)NC(=N)Nc1ccc(Cl)cc1.O=C(O)[C@H](O)[C@@H](O)[C@H](O)[C@H](O)CO.O=C(O)[C@H](O)[C@@H](O)[C@H](O)[C@H](O)CO [chlorhexidine gluconate] |  |  | more resistant; also recorded: increased resistance
CRAMP: murine cationic antimicrobial peptide (ISRLAGLLRKGGEKIGEKLKKIGQKIKNFFQKLVPQPE; UniProt P51437 135-172, looked up) | resistant; also recorded: VIR-O cells vastly outnumbered AV-T cells |  | 
LL-37: human antimicrobial peptide, the human orthologue of CRAMP | VIR-O cells also outnumbered AV-T; also recorded: resistant |  | 
benzalkonium chloride |  |  | more resistant; also recorded: increased resistance
lysozyme | resistant; also recorded: VIR-O cells vastly outnumbered AV-T cells |  | 
